Results as given in patent US6194451A, “Matrix metalloproteinase inhibitors” (Pharmacia & Upjohn S.p.A., priority 1997, dated 2001).

How the values were obtained:
[1] = tested on: release of TNF from THP-1 cells; assay: Cellular Assay (Protocol B): inhibition of release of TNF from LPS-stimulated THP-1 cells; assay type: cell-based; conditions: Homo sapiens, LPS 5 microg/mL, 4 h
Procedure: For example, the following cell-based assay was used to assess such activity:
THP-1 cells, cultured in RPMI 1640 supplemented with 10% FCS, were distributed into 24-well plates, 1 mL of a suspension of 1×10^6 cells/mL in each well. Compounds to be tested, dissolved in DMSO and diluted with the culture medium (1% final DMSO concentration) were added. Plates were incubated for 30 min at 37° C. in 5% CO2, and lipopolisaccharide (LPS 0111:B4, 5 microg/mL) was added as a stimulant. After a further 4 h incubation, cells were harvested, centrifuged (2,000 rpm, 7 min), and the surnatant was collected and freezed (-20° C.) until analysis. Analysis was run by classical ELISA methodology (monoclonal anti-TNF-a antibody, rabbit capture policlonal antibody, and peroxidated anti-rabbit antibody).

[2] = Pharmacokinetic Assay (Protocol C): plasma levels after i.v. and oral administration to rats; assay type: in vivo, rat (male Sprague-Dawley); conditions: 15 mg/kg
Procedure: Male rats (Sprague-Dawley; body weight about 250-300 g) were acclimatized for about one week before the start of the study. […] Before treatment, rats were overnight fasted. For each compound to be assessed, three rats were treated intravenously (injection in the tail vein as a bolus) with a single dose of 15 mg/kg (as free base or free acid if needed) body weight. Other three rats were treated orally (single bolus dose by gastric gavage) with 15 mg/kg of the same compound. In same cases, according to the detection limit of each particular compound, and its availability in stock, these standard doses were modified as needed.
Blood samples were collected into syringes especially prepared for use with the cannulated animals via the SCV cannula. Under standard conditions, blood samples (0.2 mL) were transferred into heparinized tubes at the following times: 0 (pre-dose), 2, 4, 8, 16, 30, 45, 60, 90 min, 2, 4, 6, 8 and 24 h after iv administration; 0 (pre-dose), 5, 10, 30, 45, 60, 90 min, 2, 4, 6, 8, and 24 h after oral administration. Plasma was obtained immediately by centrifugation (about 10,000 rpm for 3 min) and stored at -80° C. till analysis. Plasma samples were assayed for parent drug concentrations using an appropriate analytical method. Under standard conditions, liquid chromatography--tandem mass spectrometry (LC/MS-MS) was used.
Non-compartmental pharmacokinetic calculations were performed with the aid of Pharm-NCA package (SIMED, France). Maximum plasma concentration, Cmax, and the corresponding time, tmax, were read as the coordinates of the highest raw-data point for individual plasma profiles. Terminal phase was evaluated by graphic judgement by eye; terminal rate constant, was calculated as the slope of the terminal linear portion of natural log-transformed plasma concentrations vs. time curve, obtained using linear regression. Terminal half-life, t1/2,z, was calculated as ln(2)/lz. The area under the plasma concentration-time curve was estimated by the linear trapezoidal rule up to the last measured concentration (AUC(0-tz)) and extrapolated to infinity assuming monoexponential decay, using the formula AUC=AUC(0-tz)+C(tz)/lz, where C(tz) is the measured concentration of the last point with detectable concentration. Following iv dosing, systemic clearance was obtained using the formula Cl=Dose/AUC. According to Protocol C, the pharmacokinetic in rats of some representative compounds within the present invention was evaluated. Significant pharmacokinetic data obtained in rats at a 15 mg/kg dose were as follows: […]

**Q.** For CNC(=O)[C@@H](NC(=O)[C@H](CC(C)C)[C@](O)(CO)C(=O)NO)C(C)(C)C [Example 3], which IC50 [1] is on record?
**A.** The IC50 was 8.1 µM.

**Q.** And the “plasma clearance compared with literature hydroxamic acid MMP inhibitors” value ([2]; to our best knowledge)?
**A.** Its value is “inferior to that reported for any hydroxamic acid MMP inhibitor disclosed in the literature”.

**Q.** And the AUC iv ([2]; iv)?
**A.** The AUC iv was 1.53 mg·min/mL.

**Q.** What about the half-life ([2]; rat, plasma, terminal half-life, read-out: t1/2,z (converted)) of the same compound?
**A.** The half-life was 5.4 h.

**Q.** What about the clearance ([2]; rat, plasma, iv) of the same compound?
**A.** The clearance was 9.89 mL/min/kg.

**Q.** And the AUC ([2]; rat, plasma, oral)?
**A.** The AUC was 1100 ng·h/mL.
